Read-outs that look alike come from different tables or passages of the source.
What was measured:
[1] = target: HSA (Homo sapiens, UniProt P02768); settings: literature values; cited from earlier work
[2] = Water exchange rate and molecular rotational correlation time by 17O-NMR at 9.4 T; type: physicochemical; settings: 298 K
Excerpt: According to the disclosure of Chem. Rev., 1999, 99, 2293-2352, the relaxivity of the metal complex is affected by the hydration number q and the correlation time τc. The correlation time τc depends on three parameters: (1) molecular rotational correlation time (τR); (2) Electron longitudinal and transverse spin relaxation time (T1e, T2e); and (3) Water residence lifetime (τm) or Water exchange rate (kex), τm^−1=kex. Since Bz-CB-TTDA and CB-TTDA have the same hydration number, comparison between Bz-CB-TTDA and CB-TTDA in relaxivity can be determined by the aforesaid parameters, i.e., the higher the parameters, the higher will be the relaxivity.
Electron longitudinal and transverse spin relaxation time (T1e, T2e) of each test sample of the metal complexes was measured by using ^17O-NMR in a magnetic field of 9.4 T. The water exchange rate at 298 K (Kex^298) and the molecular rotational correlation time at 298 K (τR^298) of each test sample were determined by using three plots of “T1 versus temperature”, “T2 versus temperature” and “chemical shift versus temperature”.

[3] = Kinetic stability in PBS containing Zn2+; type: physicochemical; parameters: unit not given here; settings: 2.5 mM complex, 2.5 mM ZnCl2, PBS pH 7.4, 37±0.1° C., three days, NMR 20 MHz
Method: Kinetic stability is evaluated by testing the stability of the metal complex in an environment containing a poisonous metal ion Zn^2+. The stability is defined as R1^p (t)/R1p (0), in which R1^P (t)=1/T1 (t), T1 is the relaxivity. The higher the R1^P (t)/R1p (0), the higher will be the stability.
2.5 mM of each of [Gd(Bz-CB-TTDA)]^2−−, [Gd(CB-TTDA)]^2− and [Gd(DTPA)]^2− was placed in a phosphate buffer saline (PBS, pH=7.4), followed by adding 2.5 mM of ZnCl2 to obtain a sample. The sample was subjected to reaction at 37±0.1° C. for three days (t=3), after which the relaxivity T1(t) of the sample was determined by using NMR (20 MHz).

[4] = cited from earlier work

HSA, sequence (P02768 25-609): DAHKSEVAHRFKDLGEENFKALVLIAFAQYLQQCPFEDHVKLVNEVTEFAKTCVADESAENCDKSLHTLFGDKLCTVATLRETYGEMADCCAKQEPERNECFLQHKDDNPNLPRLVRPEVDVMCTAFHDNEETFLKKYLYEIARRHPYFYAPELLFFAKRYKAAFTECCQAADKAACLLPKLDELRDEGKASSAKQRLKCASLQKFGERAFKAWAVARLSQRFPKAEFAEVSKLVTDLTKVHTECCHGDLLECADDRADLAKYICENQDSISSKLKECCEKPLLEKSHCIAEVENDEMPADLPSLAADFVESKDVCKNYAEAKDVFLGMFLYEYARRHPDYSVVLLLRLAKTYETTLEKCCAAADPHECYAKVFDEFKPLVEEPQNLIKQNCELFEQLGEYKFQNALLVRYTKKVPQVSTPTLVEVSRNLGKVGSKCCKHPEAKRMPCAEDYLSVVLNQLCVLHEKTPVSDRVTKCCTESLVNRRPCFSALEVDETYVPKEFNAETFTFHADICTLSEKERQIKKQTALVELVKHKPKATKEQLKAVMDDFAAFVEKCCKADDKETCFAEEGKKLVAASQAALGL

SMILES | γ1^b bound relaxivity [1] | kex^298 water exchange rate [2] | τR^298 molecular rotational correlation time [2] | R1^p (t)/R1^p (0) [3] | γ1 relaxivity ([4]; pH 7.6 ± 0.1, Am. J. Roentgenol., 1984, 142, 619-624) | γ1 relaxivity ([4]; pH 7.5 ± 0.1, Inorg. Chem., 2005, 44, 382)
O=C(O)CN(CCN(CC(=O)O)CC(=O)O)CCN(CC(=O)O)C(COCc1ccccc1)C(=O)O (stereo not drawn) [[Gd(BOPTA)]^2−] | 33.0^a mM^−1s^−1 |  |  |  |  | 
O=C([O-])CN(CCN(CC(=O)[O-])CC(=O)[O-])CCN(CC(=O)[O-])CC(=O)[O-].[Gd+3] [[Gd(DTPA)]^2−] |  | 4.1 10^6 s^−1 | 103 ps | 49.79 | 3.89 ± 0.03^a mM^−1s^−1 | 
CCOc1ccc(C[C@@H](C(=O)O)N(CCN(CCN(CC(=O)O)CC(=O)O)CC(=O)O)CC(=O)O)cc1 [[Gd(S)-EOB-DTPA]^2−] | 44.1^a mM^−1s^−1 |  |  |  |  | 
O=C([O-])CN(CCCN(CC(=O)[O-])CC(=O)[O-])CCN(CC(=O)[O-])CC(=O)[O-].[Gd+3] [[Gd(TTDA)]^2−] |  | 146 ± 17.0 10^6 s^−1 | 104 ± 12.0 ps |  |  | 3.85 ± 0.03^a mM^−1s^−1

Source: patent US8354512B2, “Ligand and metal complex” (National Chiao Tung University, priority 2009, dated 2013)
